Patent publication US20260234188A1, “CHEMOKINE-BINDING PEPTIDES” (Oxford University Innovation Limited, priority 2022, published 2026)
Entries after “also recorded” stand apart in the source; their conditions may differ.

These substances were tested on panel of 24 biotinylated chemokines (assay: Phage-display screen of HD2 NNK saturation mutagenesis library). Details: HD2 saturation mutants; chemokines on streptavidin beads; UniProt entry names.
Format: binding, human
From the text: (§1) FIG. 7. Exemplar results from phage display screens using saturation mutagenesis. A phage-display library was constructed using the HD2 sequence, replacing each residue encoding codon with the degenerate sequence NNK. The 16 degenerate sequences (which also encoded the parental HD2 sequence) were pooled and cloned into display phage. […] Exemplar peptides were selected such that log 2 E for at least one chemokine was greater than 5, and log 2 E for binding to control (CO5, was less than zero). […] The fold enrichment of parental HD2 is also indicated.
as §1, with “A” for “FIG. 7. Exemplar results from phage display screens using saturation mutagenesis. A”
A molecular level understanding of binding mechanism is needed for development of peptides as therapeutics and is usually obtained from structural analyses. As HD2 binds many chemokines this becomes a challenging task, and we explored if we could elucidate this using phage display mutagenesis. The role of each residue in HD2 for binding was examined in phage-display. A library of HD2 mutations that had NNK substituted at each residue and performed phage-display selection against a panel of 24 biotinylated chemokines, in parallel, as described in Example 7. This strategy allowed us to evaluate the impact not only of Ala substitutions, but also conservative, hydrophilic and hydrophobic substitutions, and compare with binding of parental HD2 which is also included in the library. Ala substitution removes side-chains beyond the β-carbon and can be used to infer the role of side-chain functional groups without affecting conformational flexibility of the backbone. […] These residues are within the two motifs identified previously. Other notable residues identified were Y8 and P10. We next judged the impact of Ala mutation by calculating the change in log 2 E (Δlog 2 E) between the mutant and parental HD2. A positive value of Δlog 2 E indicates increased binding, and a negative value decreased binding compared to parental HD2. […] As may be seen, the log 2 E for the parental HD2 was ~0 in these analyses indicating lack of enrichment.
Oligonucleotide pools were amplified using primers: oligo_fwd: 5′-[…] and oligo_rev2: 5′-tcgtcaccctcggcgcctcctcoggatcctccacc. Oligonucleotide PCR products were cloned into plasmid prSTOP4Nsi using NEB Builder HiFi Assembly following instructions of the manufacturer. The vector pool was used to transform electrocompetent Invitrogen ElectroMAX™ DH5α-E™ cells. Plasmid DNA was harvested by MaxiPrep (GeneJet Plasmid Maxiprep Kit) and was transformed into SS320 phage display electrocompetent cells (Lucigen), following the manufacturer's protocol, resuspended in 950 μL recovery media for each electroporation, transferred to 50 mL Falcon tubes, 100 μL 1011 CFU/mL M13KO7 helper phage (NEB) added and shaken at 37° C., 220 RPM for 1 h. 1 mL recovery culture was added to 2YT medium containing +50 ug/mL carbenicillin and 25 ug/mL kanamycin, and grown overnight at 37C, 220 rpm. Phage was precipitated from the culture supernatant by adding 22.5 mL of supernatant to 4.5 mL 20% PEG 8000/2.5 M NaCl, incubating on ice for 30 min, and centrifuging at 10,000 RPM, 4° C. for 10 min, and resuspending phage in 1 ml of PBT, followed by centrifugation at 13000 RPM, 4° C., for 10 min. […]

| Substance | Chemokines Bound log2E 1-5 | Chemokines Bound log2E > 5 |
| --- | --- | --- |
| EEDDYEAYAPLTCYFT [HD2_E6] | CCL1, CCL11, CCL15, CCL17,; also recorded: CCL18, CCL19, CCL2, CCL22,; also recorded: CCL28, CCL3, CCL4, CCL5, CCL8,; also recorded: X3CL1, CXL10, CXL11, CXL14 | SDF1, CXL13 |
| EEDDYSAYAPLTCYFT [HD2_S6] | CCL11, CCL15, CCL17, CCL18,; also recorded: CCL2, CCL22, CCL4, CCL5, CCL8,; also recorded: X3CL1, CXL10, SDF1, CXL13, IL8 | CCL1, CCL3 |
| EEDDYTAYADLTCYFT [HD2_D1C] |  | CXL11 |
| EEDDYTAYAPFTCYFT [HD2_F11] | CCL18, CXL11, CXL13, CXL14 | CCL20 |
| EEDDYTAYAPLHCYFT [HD2_H12] | CCL15, CCL28, CCL4, CCL5 | CCL22 |
| EEDDYTAYAPLICYFT [HD2_112] | CCL18, CCL25, CCL28, CCL4,; also recorded: X3CL1, CXL10, SDF1, CXL13,; also recorded: CXL14 | CCL19 |
| EEDDYTAYAPLTCYFD [HD2_D16] | CCL1, CCL11, CCL17, CCL18,; also recorded: CCL2, CCL22, CCL3, CCL4, CCL5,; also recorded: CCL8, X3CL1, CXL10, CXL11,; also recorded: CXL13, CXL14 | SDF1 |
| EEDDYTAYAPLVCYFT [HD2_V12] | CCL18, CCL25, CCL28, CCL4,; also recorded: CCL8, X3CL1, CXL10, SDF1,; also recorded: CXL13, CXL14 | CCL19 |
| EEDDYTAYAPQTCYFT [HD2_Q11] | CCL1, CCL11, CCL15, CCL18,; also recorded: CCL22, CCL4, CCL5, CCL8 | CCL17 |
| EEDDYTAYAPTTCYFT [HD2_T11] | CCL11, CCL17, CCL18, CCL22,; also recorded: CCL4, CCL5, CCL8 | CCL15 |
| EEDDYTAYAPVTCYFT [HD2_V11] | CCL1, CCL11, CCL15, CCL18,; also recorded: CCL2, CCL22, CCL28, CCL3,; also recorded: CCL4, CCL5, CCL8, CXL10,; also recorded: CXL11, CXL13 | CCL17 |
| EEDDYTAYAPYTCYFT [HD2_Y11] | CCL1, CCL11, CCL15, CCL17,; also recorded: CCL18, CCL19, CCL2, CCL20,; also recorded: CCL3, CCL4, CCL5, CCL8, X3CL1,; also recorded: CXL11, CXL13, CXL14 | CCL22 |
| EEDDYTDYAPLTCYFT [HD2_D7] | CCL1, CCL11, CCL15, CCL17, and CCL18, CCL19, CCL2, CCL22, and CCL28, CCL3, CCL4, CCL5, CCL8, and X3CL1, CXL10, CXL11, CXL14, and IL8 | SDF1, CXL13 |
| EEDDYTEYAPLTCYFT [HD2_E7] | CCL1, CCL11, CCL15, CCL18,; also recorded: CCL2, CCL22, CCL28, CCL3,; also recorded: CCL4, CCL5, CCL8, X3CL1,; also recorded: CXL10, CXL14, IL8 | SDF1, CXL13 |

Same assay, conditions: best mutation at each residue

| Substance | peak log 2 E |
| --- | --- |
| EEDDYTAYADLTCYFT [HD2_D1C] | highest peak log 2 E at that residue |
| EEDDYTAYAPLICYFT [HD2_112] | highest peak log 2 E at that residue |

Same assay, conditions: conservative residue substitutions (Dayhoff PAM250), mutant versus parental HD2

| Substance | effect on Δlog 2 E |
| --- | --- |
| EEDDYTAYAPLTSYFT [HD901] | significant deleterious effect |

Same assay, conditions: over all chemokines

| Substance | mean log 2 E compared to parental HD2 |
| --- | --- |
| DEDDYTAYAPLTCYFT [E1D] | enhancement over the parental that was not statistically significant |
| EDDDYTAYAPLTCYFT [E2D] | enhancement over the parental that was not statistically significant |
| EEDDYTDYAPLTCYFT [HD2_D7] | significant improvement |

What follows are substances tested on panel of up to 42 human chemokines (assay: Phage-display next generation sequencing screen of overlapping hexadecapeptide libraries, chemokines displayed on streptavidin beads). Details: log2E greater than 5, chemokines named by first part of UniProt Entry Name.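 Note: chemokine listed when log2 fold enrichment exceeds 5.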
Format: binding
Method in brief: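 Phage-display libraries of 55662 overlapping hexadecapeptides from tick and viral chemokine-binding proteins, human chemokines and chemokine receptors screened against up to 42 human chemokines, with hits found by next-generation sequencing. Peptides mapped to parent-protein position with log2 fold enrichment; regions of interest where cumulative residue log2 E exceeds the 95% upper CI of the protein median.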

| Substance | Chemokines Bound |
| --- | --- |
| CR27433 (YLLDFILALVGNTLAL) | CCL18, CCL19,; also recorded: CCL20, CCL25,; also recorded: CCL28, CXL10,; also recorded: CXL11 |
| CR27448 (YLLNLAISDLLFVFSL) | CCL1, CCL2,; also recorded: CXL11, IL8 |
| CR27514 (YLYVYLDIFSVVSVSL) | CCL1, CCL19, and SDF1 |
| CR27677 (YSAFLSGMTSLLLVLL) | CCL17, CCL18,; also recorded: CCL20, CCL25,; also recorded: CXL10, CXL14 |
| CR28001 (YVSFISTTILFLIFSV) | CCL1, CCL15,; also recorded: CCL17, CCL19,; also recorded: CCL20, CCL22,; also recorded: CCL25, CCL28,; also recorded: X3CL1, CXL10,; also recorded: CXL11, CXL14 |
| CR28005 (YVSTLDFAIVFILMII) | CCL17, CCL18,; also recorded: CCL19, CCL20,; also recorded: CCL22, CCL28,; also recorded: X3CL1, CXL10,; also recorded: CXL11, SDF1,; also recorded: CXL13 |

Same assay, conditions: log2E greater than 5, chemokines named by first part of UniProt Entry Name, peptides binding complement C5a (control) excluded

| Substance | Chemokines Bound |
| --- | --- |
| EB630 (DKKVGLCLSTEYTDFS) | CXL10, SDF1,; also recorded: CXL14 |
| EB936 (EKSDEYELFTVEYCGT) | CXL10, CXL11,; also recorded: SDF1, CXL13 |
| EB963 (ENDKKVGLCLSTEYTD) | CXL10, CXL11, and SDF1 |
| EB1522 (GNSTEGRCIELIGDFD) | CXL11, SDF1,; also recorded: CXL14 |
| EB1728 (HEDGKKVGLCLSTEYT) | CXL10, SDF1,; also recorded: CXL14 |
| EB2047 (KSDEYELFTVEYCGTN) | CXL10, CXL11,; also recorded: SDF1, CXL14 |
| EB2053 (KSDVYELFTVEYCGTN) | CXL10, CXL11,; also recorded: CXL13 |
| EB2359 (NDKKVGLCLSTEYTDF) | CXL10, CXL11,; also recorded: SDF1, CXL14 |
| EB2905 (SACSGDCVCVHRDNEP) | CXL10, CXL11, and SDF1 |
| EB3085 (SGLCLSTTYIDFSEYG) | CXL10, CXL11,; also recorded: SDF1, CXL14 |
| EB3094 (SGNCTCYHEDGKKVGL) | CXL10, CXL11, and SDF1 |
| EB3974 (VGLCLSTEYTDFSEYP) | CXL10, SDF1,; also recorded: CXL14 |
| EB3975 (VGLCLSTEYTDFTKFP) | CXL10, CXL11,; also recorded: SDF1, CXL14 |
| EDDYTAYAPLTCYFTN [HD842] | CCL1, CCL17, and CCL4, CCL5, and CCL8 |
| EEEDDYTAYAPLTCYF [HD7] | CCL1, CCL11, and CCL15, CCL17, and CCL18, CCL20, and CCL22, CCL3, and CCL4, CCL5, and CCL8 |
| LEEEDDYTAYAPLTCY [HD2134] | CCL1, CCL11, and CCL15, CCL17, and CCL18, CCL22, and CCL4, CCL5, and CCL8 |

| Substance | Chemokines Bound |
| --- | --- |
| LTDGTACYVVERKVWD [HD2313] | CCL19, CCL20,; also recorded: CCL28 |
| TDGTACYVVERKVWDR [HD3838] | CCL19, CCL2,; also recorded: CCL20, CCL28 |
| VP485 (AMMLSLLIAGMSLMLG) | CCL11, CCL25, and CCL28, CCL5, and CXL11, CXL14, and IL8 |
| VP988 (CIILLVYVYATFATKG) | CCL1, CCL8,; also recorded: X3CL1, CXL10,; also recorded: CXL11 |
| VP1485 (DLAGLDSLTSPVYVMA) | CCL20, X3CL1, and SDF1 |
| VP3426 (GSMMLSLLIAGMSLML) | CCL2, CCL5, and X3CL1, CXL10, and IL8 |
| VP4048 (IILLVYVYATFATKGI) | CCL1, CCL5,; also recorded: CCL8, X3CL1,; also recorded: CXL10, CXL11,; also recorded: CXL13, IL8 |
| VP4071 (IKAESKGSELILLDPP) | CCL17, CCL20,; also recorded: CCL22 |
| VP5438 (LIKAAILLLAGGLAES) | CCL17, CCL20,; also recorded: CCL25, CCL28,; also recorded: CCL5, CXL10 |
| VP6154 (MKSVLYLYILFLSCII) | CCL1, X3CL1, and CXL10, CXL11, and IL8 |
| VP6289 (MVAVALYAYGLAFRLM) | CCL1, CCL11,; also recorded: CCL15, CCL17,; also recorded: CCL19, CCL2,; also recorded: CCL20, CCL22,; also recorded: CCL25, CCL28,; also recorded: CCL5, CXL10,; also recorded: SDF1, IL8 |
| VP6307 (MYSLVFVILMCIPFSF) | X3CL1, CXL11,; also recorded: CXL13, IL8 |
| VP7819 (RLEELYLTVASMFERL) | CCL1, CCL11,; also recorded: CCL17, CCL19,; also recorded: CCL2, CCL22,; also recorded: CCL28, CXL10 |
| VP10866 (VNASIAWFFDFGACRM) | X3CL1, CXL10,; also recorded: CXL11 |
| VP11559 (YLYILFLSCIIINGRD) | CXL10, CXL11,; also recorded: CXL13, IL8 |
| VP11669 (YSLVFVILMCIPFSFQ) | X3CL1, CXL10,; also recorded: CXL11, IL8 |
